According to ChEMBL document CHEMBL4613277, “Improving the Potency of N-Aryl-2,5-dimethylpyrroles against Multidrug-Resistant and Intracellular Mycobacteria” (ACS Med Chem Lett, 2020):
In brackets after ≈: the same amount, converted by molar mass.

Legend:
[1] = test system: Mycobacterium tuberculosis; test: Antimycobacterial activity against multidrug resistance Mycobacterium tuberculosis CCM11.1 assessed as reduction in bacterial growth incubated for 7 days by resazurin based assay; assay type: functional; settings: CCM11.1, 168 h
[2] = test system: Mycobacterium tuberculosis; test: Antimycobacterial activity against multidrug resistance Mycobacterium tuberculosis CCM10.1 assessed as reduction in bacterial growth incubated for 7 days by resazurin based assay; assay type: functional; settings: CCM10.1, 168 h

`COc1ccc(-n2c(C)cc(CNC3CCCCC3)c2C)cc1` was tested, and the MIC [1] was 0.5 µg/mL (≈ 1.6 µM) and the MIC [2] was < 0.000625 µg/mL.

In the case of `Cc1cc(CNC2CCCCC2)c(C)n1-c1ccc(C(C)C)cc1`, the MIC [1] is reported as 0.5 µg/mL (≈ 1.54 µM) and the MIC [2] is reported as 0.00125 µg/mL (≈ 0.00385 µM).

For `Cc1cc(CNCC2CCCCC2)c(C)n1-c1ccc(Cl)cc1`, the MIC [1] was 0.12 µg/mL (≈ 0.363 µM) and the MIC [2] was < 0.000625 µg/mL.

`Cc1cc(CN[C@H]2C[C@@H]3CC[C@H]2C3)c(C)n1-c1ccc(Cl)cc1` was tested, and the MIC [1] was 1 µg/mL (≈ 3.04 µM) and the MIC [2] was 0.0025 µg/mL (≈ 0.0076 µM).
